Where two headings read alike, the source gives them in different places.
Experiments:
[1] = system: K. pneumoniae 156319 expressing KPC-3; assay: broth microdilution MIC, K. pneumoniae KPC-3; format: cell-based; conditions: Fixed Mero (meropenem) 4 μg/mL
Outline: (§1)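 CAMHB; strains pre-grown 3-5 h. Test cpd 2-fold dilutions, 32→0.25 μg/mL final, + beta-lactam static 4 μg/mL. CLSI inoculation, 16-20 h at 37° C, visual MIC.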

[2] = system: S. aureus MSSA-7 producing penicillinase PC-1; assay: broth microdilution MIC, S. aureus PC-1; format: cell-based; conditions: Fixed Pip (piperacillin) 4 μg/mL
Description: (§2) To determine the ability of test compounds to potentiate the inhibition of the growth of bacterial strains that produce beta-lactamase enzymes, classic cell based broth microdilution MIC assays were employed. Six bacteria strains producing beta-lactamase enzymes were used: E. coli expressing the Class A Extended Spectrum Beta-Lactamase (ESBL) CTX-M-15, E. cloacae expressing the Class C P99, K. pneumoniae expressing the Class A carbapenemase KPC-3, P. aeruginosa expressing the Class B carbapenemase VIM-2, K pneumoniae expressing the class A carbapenemase KPC-2 and the class B carbapenemase VIM-4, and S. aureus producing the Class A penicillinase PC-1. The assay was conducted in Cation Adjusted Mueller Hinton Broth (CAMHB, BD #212322, BD Diagnostic Systems, Sparks, Md.). Bacteria strains were grown for 3-5 hours in CAMBH broth. Test compounds were added to a microtiter plate in 2-fold serial dilutions in CAMHB in a final concentration range of 32 μg/mL to 0.25 μg/ml. An overlay of CAMHB containing a Beta-lactam was added to the compounds at a final static concentration of 4 μg/ml. […] In addition to the titration of test compounds the MICs of a panel of control beta-lactams is also tested to ensure the strains are behaving consistently from test to test. Once the test compound and antibiotics are added the plates can be inoculated according to CLSI broth microdilution method. After inoculation the plates are incubated for 16-20 hours at 37° C., then the Minimal Inhibitory Concentration (MIC) of the test compound is determined visually.
(§3) Using the methodology described above, examples of the current invention were evaluated for their ability to inhibit the growth of β-lactamase-producing bacteria in the presence of a β-lactam antibiotic.
(§4) Representative results are shown in Table 4 where A represents an MIC of the fixed β-lactam antibiotic in the presence of >32 µg/mL of a β-lactamase inhibitor of exemplary compounds, B represents the MIC in the presence of between 8 and 32 µg/mL of a β-lactamase inhibitor of exemplary compounds, and C represents the MIC in the presence of ≤4 µg/mL of a β-lactamase inhibitor of exemplary compounds. NT=Not Tested.

[3] = system: P. aeruginosa Ps296 expressing VIM-2; assay: broth microdilution MIC, P. aeruginosa VIM-2; format: cell-based; conditions: Fixed Mero (meropenem) 4 μg/mL
Description: as §2, §3, §4

[4] = system: E. coli ESBL4 expressing CTX-M-15; assay: broth microdilution MIC, E. coli CTX-M-15; format: cell-based; conditions: Fixed CAZ (ceftazidime) 4 μg/mL
Outline: as §1

[5] = system: E. cloacae 144200 expressing Class C P99 AmpC; assay: broth microdilution MIC, E. cloacae P99; format: cell-based; conditions: Fixed CAZ (ceftazidime) 4 μg/mL
Outline: as §1

SHV-5 β-lactamase = molecular target: T1, SHV-5 β-lactamase (Klebsiella pneumoniae, UniProt P0A3M1); assay: β-lactamase enzyme inhibition, SHV-5; format: biochemical
T1 construct: made in house; host or cells: E. coli BL21(DE3)
Outline: (§5)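 Enzyme + inhibitor, 15 min, 37° C; substrate added, absorbance read 10 min. OXA-1/p99 AmpC: nitrocefin 100 μM final, A486. KPC-2: imipenem, A300. SHV-5: cefotaxime, A260. IC50 = 50% drop in initial hydrolysis rate vs no-inhibitor control.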

p99 AmpC β-lactamase = molecular target: T2, p99 AmpC β-lactamase (Enterobacter cloacae, UniProt P05364); assay: β-lactamase enzyme inhibition, p99 AmpC; format: biochemical
T2 construct: made in house; host or cells: E. coli BL21(DE3)
Outline: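 Inhibitor and enzyme were incubated 15 min at 37°C first. The enzyme was recombinant p99 AmpC, untagged, from E. coli BL21(DE3), purified by ion-exchange and size-exclusion chromatography.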

OXA-1 β-lactamase = molecular target: T3, OXA-1 β-lactamase (Escherichia coli, UniProt P13661); assay: β-lactamase enzyme inhibition, OXA-1; format: biochemical; conditions: Nitrocefin 100 μM, 486 nm; 15 min at 37° C. preincubation; read-out: IC50 OXA-1 (Class D)
T3 construct: made in house; host or cells: E. coli BL21(DE3)
Outline: as §5

[6] = molecular target: T4, VIM-2 metallo β-lactamase (Pseudomonas aeruginosa, UniProt Q9K2N0); assay: β-lactamase enzyme inhibition, VIM-2; format: biochemical; conditions: Nitrocefin 100 μM, 486 nm; 15 min at 37° C. preincubation; read-out: IC50 VIM-2 (Class B)
T4 construct: made in house; host or cells: E. coli BL21(DE3)
Outline: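 Inhibitor and enzyme sat together 15 min at 37° C before 100 μM nitrocefin (final) was added and 486 nm absorbance read for 10 min. IC50 is the concentration halving initial hydrolysis rate relative to uninhibited wells. Protein came from Q sepharose anion exchange at pH 7.5, repeated to >90% purity.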

KPC-2 β-lactamase = molecular target: T5, KPC-2 β-lactamase (Klebsiella pneumoniae, UniProt Q9F663); assay: β-lactamase enzyme inhibition, KPC-2; format: biochemical
T5 construct: made in house; host or cells: E. coli BL21(DE3)
Outline: as §5

[7] = system: K. pneumoniae A-1797 expressing KPC-2 and VIM-4; assay: broth microdilution MIC, K. pneumoniae KPC-2 and VIM-4; format: cell-based; conditions: Fixed Mero (meropenem) 4 μg/mL
Outline: as §1

[8] = imipenem substrate, 300 nm, 15 min at 37° C. preincubation, read-out: IC50 KPC-2 (Class A)

T3 sequence (P13661 26-276): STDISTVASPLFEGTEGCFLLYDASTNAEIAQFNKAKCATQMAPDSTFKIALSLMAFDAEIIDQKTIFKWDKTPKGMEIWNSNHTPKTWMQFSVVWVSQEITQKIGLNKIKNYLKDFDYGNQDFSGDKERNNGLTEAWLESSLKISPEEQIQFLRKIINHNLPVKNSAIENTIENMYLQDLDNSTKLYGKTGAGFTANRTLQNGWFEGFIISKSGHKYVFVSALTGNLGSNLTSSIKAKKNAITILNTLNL
T5 sequence (Q9F663 25-293, looked up): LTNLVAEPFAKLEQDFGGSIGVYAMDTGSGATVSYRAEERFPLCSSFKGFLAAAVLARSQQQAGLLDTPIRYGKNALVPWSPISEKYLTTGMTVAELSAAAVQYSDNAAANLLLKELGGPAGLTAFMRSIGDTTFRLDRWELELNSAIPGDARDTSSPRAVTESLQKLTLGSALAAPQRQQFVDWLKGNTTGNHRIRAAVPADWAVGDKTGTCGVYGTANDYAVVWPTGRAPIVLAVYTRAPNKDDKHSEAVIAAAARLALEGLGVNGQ
T2 sequence (P05364 21-381): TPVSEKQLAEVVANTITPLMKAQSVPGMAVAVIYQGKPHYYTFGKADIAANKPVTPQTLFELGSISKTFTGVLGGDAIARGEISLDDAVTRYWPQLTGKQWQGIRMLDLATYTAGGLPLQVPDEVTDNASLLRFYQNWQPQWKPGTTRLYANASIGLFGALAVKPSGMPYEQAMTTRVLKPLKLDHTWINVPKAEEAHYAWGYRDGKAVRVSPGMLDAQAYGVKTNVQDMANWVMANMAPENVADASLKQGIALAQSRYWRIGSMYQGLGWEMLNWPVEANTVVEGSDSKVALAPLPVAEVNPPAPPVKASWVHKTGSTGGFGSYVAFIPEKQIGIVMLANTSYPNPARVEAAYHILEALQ
T1 sequence (P0A3M1 22-286): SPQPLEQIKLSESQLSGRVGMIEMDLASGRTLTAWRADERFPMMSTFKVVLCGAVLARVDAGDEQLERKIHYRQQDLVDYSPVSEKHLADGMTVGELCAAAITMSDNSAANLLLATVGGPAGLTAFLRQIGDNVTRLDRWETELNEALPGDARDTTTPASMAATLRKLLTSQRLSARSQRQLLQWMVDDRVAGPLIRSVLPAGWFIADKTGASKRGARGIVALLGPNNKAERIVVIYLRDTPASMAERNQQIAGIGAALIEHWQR

`O=C(O)c1cccc2c1OB(O)[C@@H](NC(=O)C(Cl)CC(F)F)C2` (stereo partly drawn) [Example 5, (R)-3-(2-Chloro-4,4-difluoro-butyrylamino)-2-hydroxy-3,4-dihydro-2H-benzo[e][1,2]oxaborinine-8-carboxylic acid] was tested, and the “MIC of exemplary compounds in presence of fixed β-lactams, K.P. 156319 KPC-3” value (“MIC of exemplary compounds … K.P. 156319 KPC-3” below) [1] was “C (C represents the MIC in the presence of ≤4 g/mL of a β-lactamase inhibitor)”, the “MIC of exemplary compounds in presence of fixed β-lactams, S. aureus MSSA-7 PC-1” value (“MIC … S. aureus MSSA-7 PC-1” below) [2] was “C (C represents the MIC in the presence of ≤4 g/mL of a β-lactamase inhibitor)” and the “MIC of exemplary compounds in presence of fixed β-lactams, P. aerug. Ps296 VIM-2” value (“MIC … P. aerug. Ps296 VIM-2” for short) [3] was “A (A represents an MIC of the fixed β-lactam antibiotic in the presence of >32 g/mL of a β-lactamase inhibitor)”. For the same molecule, the “MIC of exemplary compounds in presence of fixed β-lactams, E. coli ESBL4 CTX-M-15” value (from here on “MIC … E. coli ESBL4 CTX-M-15”) [4] was “C (C represents the MIC in the presence of ≤4 g/mL of a β-lactamase inhibitor)”, the “MIC of exemplary compounds in presence of fixed β-lactams, E. cl. 144200 p99 AmpC” value (shortened to “MIC … E. cl. 144200 p99 AmpC”) [5] was “C (C represents the MIC in the presence of ≤4 g/mL of a β-lactamase inhibitor)” and the IC50 (SHV-5 β-lactamase) was less than 100 nM. For the same molecule, the IC50 (p99 AmpC β-lactamase) was less than 100 nM, the IC50 (OXA-1 β-lactamase) was less than 100 nM and the IC50 [6] was 1000 to 10000 nM. For the same molecule, the IC50 (KPC-2 β-lactamase; [8]) was less than 100 nM and the “MIC of exemplary compounds in presence of fixed β-lactams, K.P. A-1797 KPC-2 VIM-4” value (“MIC … K.P. A-1797 KPC-2 VIM-4” below) [7] was “B (B represents the MIC in the presence of between 8 and 32 g/mL of a β-lactamase inhibitor)”.
In the case of `CC(C)CC(=O)N[C@H]1Cc2cccc(C(=O)O)c2OB1O` [Example 6, (R)-2-Hydroxy-3-(3-methyl-butyrylamino)-3,4-dihydro-2H-benzo[e][1,2]oxaborinine-8-carboxylic acid], the “MIC of exemplary compounds … K.P. 156319 KPC-3” value [1] is reported as “C (C represents the MIC in the presence of ≤4 g/mL of a β-lactamase inhibitor)”, the “MIC … S. aureus MSSA-7 PC-1” value [2] is reported as “C (C represents the MIC in the presence of ≤4 g/mL of a β-lactamase inhibitor)” and the “MIC … P. aerug. Ps296 VIM-2” value [3] is reported as “B (B represents the MIC in the presence of between 8 and 32 g/mL of a β-lactamase inhibitor)”. The “MIC … E. coli ESBL4 CTX-M-15” value [4] was “C (C represents the MIC in the presence of ≤4 g/mL of a β-lactamase inhibitor)”, the “MIC … E. cl. 144200 p99 AmpC” value [5] was “C (C represents the MIC in the presence of ≤4 g/mL of a β-lactamase inhibitor)” and the IC50 (SHV-5 β-lactamase) was less than 100 nM. For the same molecule, the IC50 (p99 AmpC β-lactamase) was less than 100 nM, the IC50 (OXA-1 β-lactamase) was less than 100 nM and the IC50 [6] was 1000 to 10000 nM. For the same molecule, the IC50 (KPC-2 β-lactamase; [8]) was less than 100 nM and the “MIC … K.P. A-1797 KPC-2 VIM-4” value [7] was “A (A represents an MIC of the fixed β-lactam antibiotic in the presence of >32 g/mL of a β-lactamase inhibitor)”.
With `N#CCCC(=O)N[C@H]1Cc2cccc(C(=O)O)c2OB1O` [Example 8, (R)-3-(3-Cyano-propionylamino)-2-hydroxy-3,4-dihydro-2H-benzo[e][1,2]oxaborinine-8-carboxylic acid] the “MIC of exemplary compounds … K.P. 156319 KPC-3” value [1] was “C (C represents the MIC in the presence of ≤4 g/mL of a β-lactamase inhibitor)”, the “MIC … S. aureus MSSA-7 PC-1” value [2] was “C (C represents the MIC in the presence of ≤4 g/mL of a β-lactamase inhibitor)” and the “MIC … P. aerug. Ps296 VIM-2” value [3] was “C (C represents the MIC in the presence of ≤4 g/mL of a β-lactamase inhibitor)”. For the same molecule, the “MIC … E. coli ESBL4 CTX-M-15” value [4] was “C (C represents the MIC in the presence of ≤4 g/mL of a β-lactamase inhibitor)”, the “MIC … E. cl. 144200 p99 AmpC” value [5] was “C (C represents the MIC in the presence of ≤4 g/mL of a β-lactamase inhibitor)” and the IC50 (SHV-5 β-lactamase) was less than 100 nM. The IC50 (p99 AmpC β-lactamase) was less than 100 nM, the IC50 (OXA-1 β-lactamase) was less than 100 nM and the IC50 [6] was 100 to 1000 nM. For the same molecule, the IC50 (KPC-2 β-lactamase) was less than 100 nM and the “MIC … K.P. A-1797 KPC-2 VIM-4” value [7] was “C (C represents the MIC in the presence of ≤4 g/mL of a β-lactamase inhibitor)”.
With `CC(=O)CCC(=O)N[C@H]1Cc2cccc(C(=O)O)c2OB1O` [Example 10, (R)-2-Hydroxy-3-(4-oxo-pentanoylamino)-3,4-dihydro-2H-benzo[e][1,2]oxaborinine-8-carboxylic acid] the “MIC of exemplary compounds … K.P. 156319 KPC-3” value [1] was “C (C represents the MIC in the presence of ≤4 g/mL of a β-lactamase inhibitor)”, the “MIC … S. aureus MSSA-7 PC-1” value [2] was “C (C represents the MIC in the presence of ≤4 g/mL of a β-lactamase inhibitor)” and the “MIC … P. aerug. Ps296 VIM-2” value [3] was “C (C represents the MIC in the presence of ≤4 g/mL of a β-lactamase inhibitor)”. The “MIC … E. coli ESBL4 CTX-M-15” value [4] was “C (C represents the MIC in the presence of ≤4 g/mL of a β-lactamase inhibitor)”, the “MIC … E. cl. 144200 p99 AmpC” value [5] was “C (C represents the MIC in the presence of ≤4 g/mL of a β-lactamase inhibitor)” and the IC50 (SHV-5 β-lactamase) was less than 100 nM. The IC50 (p99 AmpC β-lactamase) was less than 100 nM, the IC50 (OXA-1 β-lactamase) was less than 100 nM and the IC50 [6] was 100 to 1000 nM. The IC50 (KPC-2 β-lactamase) was 100 to 1000 nM and the “MIC … K.P. A-1797 KPC-2 VIM-4” value [7] was “C (C represents the MIC in the presence of ≤4 g/mL of a β-lactamase inhibitor)”.
For `CC(Cl)(Cl)C(=O)N[C@H]1Cc2cccc(C(=O)O)c2OB1O` [Example 11, (R)-3-(2,2-Dichloro-propionylamino)-2-hydroxy-3,4-dihydro-2H-benzo[e][1,2]oxaborinine-8-carboxylic acid], the “MIC of exemplary compounds … K.P. 156319 KPC-3” value [1] was “C (C represents the MIC in the presence of ≤4 g/mL of a β-lactamase inhibitor)”, the “MIC … S. aureus MSSA-7 PC-1” value [2] was “C (C represents the MIC in the presence of ≤4 g/mL of a β-lactamase inhibitor)” and the “MIC … P. aerug. Ps296 VIM-2” value [3] was “B (B represents the MIC in the presence of between 8 and 32 g/mL of a β-lactamase inhibitor)”. For the same molecule, the “MIC … E. coli ESBL4 CTX-M-15” value [4] was “C (C represents the MIC in the presence of ≤4 g/mL of a β-lactamase inhibitor)”, the “MIC … E. cl. 144200 p99 AmpC” value [5] was “C (C represents the MIC in the presence of ≤4 g/mL of a β-lactamase inhibitor)” and the IC50 (SHV-5 β-lactamase) was less than 100 nM. The IC50 (p99 AmpC β-lactamase) was less than 100 nM, the IC50 (OXA-1 β-lactamase) was less than 100 nM and the IC50 [6] was 1000 to 10000 nM. For the same molecule, the IC50 (KPC-2 β-lactamase; [8]) was less than 100 nM and the “MIC … K.P. A-1797 KPC-2 VIM-4” value [7] was “A (A represents an MIC of the fixed β-lactam antibiotic in the presence of >32 g/mL of a β-lactamase inhibitor)”.
